According to patent US20090291942A1, “IMIDAZO PYRIDINE DERIVATIVES” (priority 2008, published 2009):
Where a name gives a salt, the structure may show the parent alone.

The molecules below were run against T1, human GPR4 (Homo sapiens, UniProt P46093) (assay: Cell-based assay for human GPR4 activity (pH-induced cAMP formation, HTRF)). Details: HeLa cells stably expressing human GPR4, pH-induced cAMP formation.
T1 construct: expressed in transfected cells
Method in brief: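 HeLa cells stably expressing human GPR4, pre-incubated 15 min at room temperature with compound in pH 8 buffer containing 2 mM IBMX. Buffer B added to set the final stimulation pH, then a further 15 min at room temperature; cAMP read by HTRF.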

T1 sequence (P46093 whole entry): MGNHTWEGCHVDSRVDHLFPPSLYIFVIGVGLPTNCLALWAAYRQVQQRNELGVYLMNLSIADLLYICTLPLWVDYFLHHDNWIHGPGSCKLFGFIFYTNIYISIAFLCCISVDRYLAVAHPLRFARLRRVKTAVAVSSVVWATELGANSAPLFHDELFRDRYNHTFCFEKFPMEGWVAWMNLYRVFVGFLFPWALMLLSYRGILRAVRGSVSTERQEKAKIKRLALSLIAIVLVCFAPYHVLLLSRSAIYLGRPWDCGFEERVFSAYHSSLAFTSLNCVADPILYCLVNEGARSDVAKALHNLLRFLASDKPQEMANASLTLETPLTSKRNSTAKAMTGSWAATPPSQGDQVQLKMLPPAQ

Row | Structure (SMILES) | IC50 [nM]
1 | CCc1nc2c(C)cc(C)nc2n1Cc1ccc(/C=C/CN2C[C@H]3C[C@@H]2CN3CC2CC2)cc1 [Example 76, 3-{4-[(E)-3-((1R,4R)-5-Cyclopropylmethyl-2,5-diaza-bicyclo[2.2.1]hept-2-yl)-propenyl]-benzyl}-2-ethyl-5,7-dimethyl-3H-imidazo[4,5-b]pyridine trihydrochloride] | 111
2 | CCc1nc2c(C)cc(C)nc2n1Cc1ccc(/C=C/CN2CCOC(CNC(=O)OC(C)(C)C)C2)cc1 (centres unmarked) [Example 77, (4-{(E)-3-[4-(2-Ethyl-5,7-dimethyl-imidazo[4,5-b]pyridin-3-ylmethyl)-phenyl]-allyl}-morpholin-2-ylmethyl)-carbamic acid tert-butyl ester] | 512
3 | CCc1nc2c(C)cc(C)nc2n1Cc1ccc(/C=C/CN2CCOC(CN)C2)cc1 (centres unmarked) [Example 78, C-(4-{(E)-3-[4-(2-Ethyl-5,7-dimethyl-imidazo[4,5-b]pyridin-3-ylmethyl)-phenyl]-allyl}-morpholin-2-yl)-methylamine dihydrochloride] | 114
4 | CCc1nc2c(C)cc(C)nc2n1Cc1ccc(/C=C/CN2CCOC(CNC(C)C)C2)cc1 (centres unmarked) [Example 79, (4-{(E)-3-[4-(2-Ethyl-5,7-dimethyl-imidazo[4,5-b]pyridin-3-ylmethyl)-phenyl]-allyl}-morpholin-2-ylmethyl)-isopropyl-amine] | 194
5 | CCc1nc2c(C)cc(C)nc2n1Cc1ccc(/C=C/Cn2ccnc2)cc1 [Example 80, 2-Ethyl-3-[4-((E)-3-imidazol-1-yl-propenyl)-benzyl]-5,7-dimethyl-3H-imidazo[4,5-b]pyridine hydrochloride] | 485
6 | CCCc1nc2c(C)cc(C)nc2n1Cc1ccc(/C=C/CN2CCC(N3CCCCC3)CC2)cc1 [Example 82, 1′-{(E)-3-[4-(5,7-Dimethyl-2-propyl-imidazo[4,5-b]pyridin-3-ylmethyl)-phenyl]-allyl}-[1,4′]bipiperidine dihydrochloride] | 455
7 | Cc1cc(C)c2nc(C(C)C)n(Cc3ccc(/C=C/CN4CCC(N5CCCCC5)CC4)cc3)c2n1 [Example 83, 1′-{(E)-3-[4-(2-Isopropyl-5,7-dimethyl-imidazo[4,5-b]pyridin-3-ylmethyl)-phenyl]-allyl}-[1,4′]bipiperidinyl dihydrochloride] | 294
8 | Cc1cc(C)c2nc(C3CC3)n(Cc3ccc(/C=C/CN4CCN(C(C)C)CC4)cc3)c2n1 [Example 84, 2-Cyclopropyl-3-{4-[(E)-3-(4-isopropyl-piperazin-1-yl)-propenyl]-benzyl}-5,7-dimethyl-3H-imidazo[4,5-b]pyridine dihydrochloride] | 181
9 | CCCCc1nc2c(C)cc(C)nc2n1Cc1ccc(/C=C/CN2CCN(C(C)C)CC2)cc1 [Example 85, 2-Butyl-3-{4-[(E)-3-(4-isopropyl-piperazin-1-yl)-propenyl]-benzyl}-5,7-dimethyl-3H-imidazo[4,5-b]pyridine dihydrochloride] | 834
10 | CCCCc1nc2c(C)cc(C)nc2n1Cc1ccc(/C=C/CN2CCC(N3CCCCC3)CC2)cc1 [Example 86, 1′-{(E)-3-[4-(2-Butyl-5,7-dimethyl-imidazo[4,5-b]pyridin-3-ylmethyl)-phenyl]-allyl}-[1,4′]bipiperidine dihydrochloride] | 481
11 | Cc1cc(C)c2nc(C(F)(F)F)n(Cc3ccc(/C=C/CN4CCC(N5CCCCC5)CC4)cc3)c2n1 [Example 87, 1′-{(E)-3-[4-(5,7-Dimethyl-2-trifluoromethyl-imidazo[4,5-b]pyridin-3-ylmethyl)-phenyl]-allyl}-[1,4′]bipiperidinyl dihydrochloride] | 296
12 | Cc1cc(C)c2nc(C(F)(F)F)n(Cc3ccc(/C=C/CN4CCC(N5CCN(C)CC5)CC4)cc3)c2n1 [Example 88, 5,7-Dimethyl-3-(4-{(E)-3-[4-(4-methyl-piperazin-1-yl)-piperidin-1-yl]-propenyl}-benzyl)-2-trifluoromethyl-3H-imidazo[4,5-b]pyridine trihydrochloride] | 199
13 | Cc1cc(C)c2nc(C(F)(F)F)n(Cc3ccc(/C=C/CN4CCC(N5CCOCC5)CC4)cc3)c2n1 [Example 89, 5,7-Dimethyl-3-{4-[(E)-3-(4-morpholin-4-yl-piperidin-1-yl)-propenyl]-benzyl}-2-trifluoromethyl-3H-imidazo[4,5-b]pyridine dihydrochloride] | 182
14 | COC(=O)C1CCN(C/C=C/c2ccc(Cn3c(C(F)(F)F)nc4c(C)cc(C)nc43)cc2)CC1 [Example 90, 1-{(E)-3-[4-(5,7-Dimethyl-2-trifluoromethyl-imidazo[4,5-b]pyridin-3-ylmethyl)-phenyl]-allyl}-piperidine-4-carboxylic acid methyl ester hydrochloride] | 568
15 | Cc1cc(C)c2nc(C(F)(F)F)n(Cc3ccc(/C=C/CN4CCN(C(C)C)CC4)cc3)c2n1 [Example 91, 3-{4-[(E)-3-(4-Isopropyl-piperazin-1-yl)-propenyl]-benzyl}-5,7-dimethyl-2-trifluoromethyl-3H-imidazo[4,5-b]pyridine dihydrochloride] | 140
16 | Cc1cc(C)c2nc(C(F)(F)F)n(Cc3ccc(/C=C/CN4CCN(C(C)(C)C)CC4)cc3)c2n1 [Example 92, 3-{4-[(E)-3-(4-tert-Butyl-piperazin-1-yl)-propenyl]-benzyl}-5,7-dimethyl-2-trifluoromethyl-3H-imidazo[4,5-b]pyridine] | 30

Row | Structure (SMILES) | IC50 [nM]
17 | CCc1nc2c(C)cc(C)nc2n1Cc1ccc(/C=C(\F)CN2CCC(N3CCCCC3)CC2)cc1 [Example 93, 1′-{(Z)-3-[4-(2-Ethyl-5,7-dimethyl-imidazo[4,5-b]pyridin-3-ylmethyl)-phenyl]-2-fluoro-allyl}-[1,4′]bipiperidinyl dihydrochloride] | 29
18 | CCc1nc2c(C)cc(C)nc2n1Cc1ccc(/C=C(\F)CN2CCN(C(C)C)CC2)cc1 [Example 94, 2-Ethyl-3-{4-[(Z)-2-fluoro-3-(4-isopropyl-piperazin-1-yl)-propenyl]-benzyl}-5,7-dimethyl-3H-imidazo[4,5-b]pyridine dihydrochloride] | 24
19 | CCc1nc2c(C)cc(C)nc2n1Cc1ccc(/C=C(\F)CN2CCN(C(C)(C)C)CC2)cc1 [Example 95, 3-{4-[(Z)-3-(4-tert-Butyl-piperazin-1-yl)-2-fluoro-propenyl]-benzyl}-2-ethyl-5,7-dimethyl-3H-imidazo[4,5-b]pyridine dihydrochloride] | 31
20 | CCc1nc2c(C)cc(C)nc2n1Cc1ccc(/C=C/C(=O)N2CCC(N(CC)CC)CC2)cc1 [Example 96, (E)-1-(4-Diethylamino-piperidin-1-yl)-3-[4-(2-ethyl-5,7-dimethyl-imidazo[4,5-b]pyridin-3-ylmethyl)-phenyl]-propenone] | 994
21 | CCc1nc2c(C)cc(C)nc2n1Cc1ccc(/C=C/C(=O)N2CCC(N3CCCCC3)CC2)cc1 [Example 97, (E)-1-[1,4′]Bipiperidinyl-1′-yl-3-[4-(2-ethyl-5,7-dimethyl-imidazo[4,5-b]pyridin-3-ylmethyl)-phenyl]-propenone hydrochloride] | 445
22 | CCc1nc2c(C)cc(C)nc2n1Cc1ccc(/C=C/C(=O)N2CCC(N3CCOCC3)CC2)cc1 [Example 98, (E)-3-[4-(2-Ethyl-5,7-dimethyl-imidazo[4,5-b]pyridin-3-ylmethyl)-phenyl]-1-(4-morpholin-4-yl-piperidin-1-yl)-propenone] | 328
23 | CCc1nc2c(C)cc(C)nc2n1Cc1ccc(C(=O)NCCCCN2CCCC2)cc1 [Example 99, 4-(2-Ethyl-5,7-dimethyl-imidazo[4,5-b]pyridin-3-ylmethyl)-N-(4-pyrrolidin-1-yl-butyl)-benzamide] | 997
24 | CCc1nc2c(C)cc(C)nc2n1Cc1ccc(C(=O)NCCCCN2CCCCCC2)cc1 [Example 100, N-(4-Azepan-1-yl-butyl)-4-(2-ethyl-5,7-dimethyl-imidazo[4,5-b]pyridin-3-ylmethyl)-benzamide] | 495
25 | CCc1nc2c(C)cc(C)nc2n1Cc1ccc(NC(=O)CCCCN2CCCC2)cc1 [Example 101, 5-Pyrrolidin-1-yl-pentanoic acid [4-(2-ethyl-5,7-dimethyl-imidazo[4,5-b]pyridin-3-ylmethyl)-phenyl]-amide] | 364
26 | CCc1nc2c(C)cc(C)nc2n1Cc1ccc(NC(=O)CCCCN2CCCCC2)cc1 [Example 102, 5-Piperidin-1-yl-pentanoic acid [4-(2-ethyl-5,7-dimethyl-imidazo[4,5-b]pyridin-3-ylmethyl)-phenyl]-amide] | 241
27 | CCc1nc2c(C)cc(C)nc2n1Cc1ccc(/C=C/CCN2CCN(C(C)(C)C)CC2)cc1 [Example 104, 3-{4-[(E)-4-(4-tert-Butyl-piperazin-1-yl)-but-1-enyl]-benzyl}-2-ethyl-5,7-dimethyl-3H-imidazo[4,5-b]pyridine dihydrochloride] | 60
28 | CCc1nc2c(C)cc(C)nc2n1Cc1ccc(/C=C/CCN2CCC(N3CCCCC3)CC2)cc1 [Example 105, 1′-{(E)-4-[4-(2-Ethyl-5,7-dimethyl-imidazo[4,5-b]pyridin-3-ylmethyl)-phenyl]-but-3-enyl}-[1,4′]bipiperidine] | 115
29 | CCc1nc2c(C)cc(C)nc2n1Cc1ccc(/C=C/CCN2CCN(C(C)C)CC2)cc1 [Example 106, 2-Ethyl-3-{4-[(E)-4-(4-isopropyl-piperazin-1-yl)-but-1-enyl]-benzyl}-5,7-dimethyl-3H-imidazo[4,5-b]pyridine dihydrochloride] | 98
30 | CCc1nc2c(C)cc(C)nc2n1Cc1ccc(/C=C/CCN2CCC(N3CCN(C)CC3)CC2)cc1 [Example 107, 2-Ethyl-5,7-dimethyl-3-{4-[(E)-4-[4-(4-methyl-piperazin-1-yl)-piperidin-1-yl]-but-1-enyl]-benzyl}-3H-imidazo[4,5-b]pyridine] | 191
31 | CCc1nc2c(C)cc(C)nc2n1Cc1ccc(/C=C/CCN2CCC(N3CCOCC3)CC2)cc1 [Example 108, 2-Ethyl-5,7-dimethyl-3-{4-[(E)-4-(4-morpholin-4-yl-piperidin-1-yl)-but-1-enyl]-benzyl}-3H-imidazo[4,5-b]pyridine dihydrochloride] | 447
32 | CCc1nc2c(C)cc(C)nc2n1Cc1ccc(/C=C/CCn2ccnc2)cc1 [Example 109] | 370
